Measurements published in patent US7872004B2, “6-(heterocyclyl-substituted benzyl)-4-oxoquinoline compound and use thereof as HIV integrase inhibitor” (Japan Tobacco Inc., priority 2006, dated 2011).

Molecular target: T1, HIV integrase (Human immunodeficiency virus type 1 group M subtype B, UniProt P12497, F1332H)
T1 construct: HIV integrase full length gene; made in house; host or cells: Escherichia coli BL21(DE3)
Assay: Determination of enzyme (HIV integrase) inhibitory activity
Format: biochemical, HIV (Human Immunodeficiency Virus (type 1))
Conditions: recombinant integrase protein (F185H), strand transfer plate assay, absorbance at 450 nm
Description: The following explains evaluation methods of the HIV integrase inhibitory activity of the compound of the present invention.
(i) Construction of Recombinant Integrase Gene Expression System
HIV integrase full length gene (J. Virol., 67, 425-437 (1993)) in which phenylalanine at codon 185 was substituted by histidine, was inserted between the restriction enzyme NdeI and XhoI sites of plasmid pET21a(+) (Novagen), whereby an integrase expression vector pET21a-IN-F185H was constructed.
(ii) Production and Purification of Integrase Protein
Escherichia coli recombinant BL21(DE3) transformed with plasmid pET21a-IN-F185H obtained in (i) was shake cultured at 30° C. in a liquid medium containing ampicillin. When the culture reached the logarithmic growth phase, isopropyl-β-D-thiogalactopyranoside was added to promote expression of integrase gene. The culture was continued for 3 hr to promote accumulation of the integrase protein. The recombinant E. coli was collected in pellets by centrifugal separation and preserved at −80° C.
The E. coli was suspended in Lysis buffer ([…] HEPES (pH 7.5), 5 mM DTT, 10 mM CHAPS, 10% glycerol) containing 1M sodium chloride and subjected to repeat pressurization and depressurization for rupture, and centrifugal separation at 4° C., 40,000×g, 60 min to recover a water-soluble fraction (supernatant). This was diluted 10-fold with Lysis buffer free of sodium chloride, mixed with SP-Sepharose (GE healthcare Bioscience) and stirred at 4° C. for 60 min to allow adsorption of integrase protein to the resin. The resin was washed with Lysis buffer containing 100 mM sodium chloride and the integrase protein was eluted with Lysis buffer containing 1M sodium chloride.
The eluted integrase protein solution was subjected to a Superdex 75 (GE healthcare Bioscience) column for gel filtration. The protein was eluted with Lysis buffer containing 1M sodium chloride.
The obtained fractions of the integrase protein were collected and preserved at −80° C.
(iii) Preparation of DNA Solution
The following DNA synthesized by Greiner or FASMAC was dissolved in TE buffer (10 mM Tris-hydrochloric acid (pH 8.0), 1 mM EDTA) and mixed with donor DNA, target DNA, and each complementary strand (+ and − strands) to 1 μM. The mixture was heated at 95° C. for 5 min, 80° C. for 10 min, 70° C. for 10 min, 60° C. for 10 min, 50° C. for 10 min and 40° C. for 10 min and kept at 25° C. to give a double stranded DNA, which was used for the test.
(iv) Determination of Enzyme (HIV Integrase) Inhibitory Activity
The donor DNA was diluted with TE buffer to 10 nM (or 5 nM), of which 50 μl was added to each well of streptavidin-coated microtiter plate (Roche) and allowed to adsorb at 37° C. for 60 min. The plate was washed with phosphate buffer (Dulbecco's PBS, Sanko Junyaku Co., Ltd.) containing 0.1% Tween 20 and phosphate buffer. Then, an enzyme reaction mixture (70 μl), a test substance (10 μl) diluted with the enzyme reaction mixture and 100 μg/ml (or 64 μg/ml (2 μM)) integrase protein (10 μl) were added to each well and reacted at 37° C. for 60 min.
Composition of the enzyme reaction mixture: 30 mM MOPS (3-morpholinopropanesulfonic acid), 5 mM magnesium chloride, 3 mM DTT (dithiothreitol), 0.1 mg/ml BSA (bovine serum albumin), 5% glycerol, 10% DMSO (dimethyl sulfoxide), 0.01% Tween 20.
Then, 50 nM (or 25 nM) target DNA (10 μl) was added, reacted at 37° C. for 10 min and washed with phosphate buffer containing 0.1% Tween 20 to stop the reaction.
Then, 100 mU/ml peroxidase labeled anti-digoxigenin antibody solution (Roche, 100 μl) was added, and the mixture was reacted at 37° C. for 60 min, followed by washing with phosphate buffer containing 0.1% Tween 20.
A peroxidase color solution (Bio Rad, 100 μl) was added and allowed to react at room temperature for 4 min (or 3 min). The color reaction was stopped by adding IN sulfuric acid (100 μl). The absorbance at 450 nm was measured. […]

Structure (SMILES)	IC50 [µM]
CCOC[C@@H](CO)n1cc(C(=O)O)c(=O)c2cc(Cc3cc(N4CCOCC4)cc(Cl)c3F)c(CC)cc21 [Example 1, 6-[3-chloro-2-fluoro-5-(morpholin-4-yl)benzyl]-1-((R)-1-ethoxymethyl-2-hydroxyethyl)-7-ethyl-4-oxo-1,4-dihydroquinoline-3-carboxylic acid]	< 0.01
COc1cc2c(cc1Cc1cc(N3CCCC3=O)cc(Cl)c1F)c(=O)c(C(=O)O)cn2[C@H](CO)C(C)C [Example 2, 6-[3-chloro-2-fluoro-5-(2-oxopyrrolidin-1-yl)benzyl]-1-((S)-1-hydroxymethyl-2-methylpropyl)-7-methoxy-4-oxo-1,4-dihydroquinoline-3-carboxylic acid]	< 0.01
COc1cc2c(cc1Cc1cc(N3CCCC3)cc(Cl)c1F)c(=O)c(C(=O)O)cn2[C@H](CO)C(C)C [Example 3, 6-[3-chloro-2-fluoro-5-(pyrrolidin-1-yl)benzyl]-1-((S)-1-hydroxymethyl-2-methylpropyl)-7-methoxy-4-oxo-1,4-dihydroquinoline-3-carboxylic acid]	< 0.01
COc1cc2c(cc1Cc1cc(N3CCOC3=O)cc(Cl)c1F)c(=O)c(C(=O)O)cn2[C@H](CO)C(C)C [Example 4, 6-[3-chloro-2-fluoro-5-(2-oxooxazolidin-3-yl)benzyl]-1-((S)-1-hydroxymethyl-2-methylpropyl)-7-methoxy-4-oxo-1,4-dihydroquinoline-3-carboxylic acid]	< 0.01
COc1cc2c(cc1Cc1cc(N3CCOCC3)cc(Cl)c1F)c(=O)c(C(=O)O)cn2[C@H](CO)C(C)C [Example 5, 6-[3-chloro-2-fluoro-5-(morpholin-4-yl)benzyl]-1-((S)-1-hydroxymethyl-2-methylpropyl)-7-methoxy-4-oxo-1,4-dihydroquinoline-3-carboxylic acid]	< 0.01
COc1cc2c(cc1Cc1cc(N3CCCCC3)cc(Cl)c1F)c(=O)c(C(=O)O)cn2[C@H](CO)C(C)C [Example 6, 6-[3-chloro-2-fluoro-5-(piperidin-1-yl)benzyl]-1-((S)-1-hydroxymethyl-2-methylpropyl)-7-methoxy-4-oxo-1,4-dihydroquinoline-3-carboxylic acid]	< 0.01
COc1cc2c(cc1Cc1cc(N3CCCCC3=O)cc(Cl)c1F)c(=O)c(C(=O)O)cn2[C@H](CO)C(C)C [Example 7, 6-[3-chloro-2-fluoro-5-(2-oxopiperidin-1-yl)benzyl]-1-((S)-1-hydroxymethyl-2-methylpropyl)-7-methoxy-4-oxo-1,4-dihydroquinoline-3-carboxylic acid]	< 0.01
COc1cc2c(cc1Cc1cc(N3CC[C@@H](O)C3)cc(Cl)c1F)c(=O)c(C(=O)O)cn2[C@H](CO)C(C)C [Example 8, 6-[3-chloro-2-fluoro-5-((R)-3-hydroxypyrrolidin-1-yl)benzyl]-1-((S)-1-hydroxymethyl-2-methylpropyl)-7-methoxy-4-oxo-1,4-dihydroquinoline-3-carboxylic acid]	< 0.01
COc1cc2c(cc1Cc1cc(N3CC[C@H](O)C3)cc(Cl)c1F)c(=O)c(C(=O)O)cn2[C@H](CO)C(C)C [Example 9, 6-[3-chloro-2-fluoro-5-((S)-3-hydroxypyrrolidin-1-yl)benzyl]-1-((S)-1-hydroxymethyl-2-methylpropyl)-7-methoxy-4-oxo-1,4-dihydroquinoline-3-carboxylic acid]	< 0.01
COc1cc2c(cc1Cc1cc(N3CCC(=O)N3C)cc(Cl)c1F)c(=O)c(C(=O)O)cn2[C@H](CO)C(C)C [Example 10, 6-[3-chloro-2-fluoro-5-(2-methyl-3-oxopyrazolidin-1-yl)benzyl]-1-((S)-1-hydroxymethyl-2-methylpropyl)-7-methoxy-4-oxo-1,4-dihydroquinoline-3-carboxylic acid]	< 0.01
COc1cc2c(cc1Cc1cc(N3CCN(C(C)=O)CC3)cc(Cl)c1F)c(=O)c(C(=O)O)cn2[C@H](CO)C(C)C [Example 11, 6-[5-(4-acetylpiperazin-1-yl)-3-chloro-2-fluorobenzyl]-1-((S)-1-hydroxymethyl-2-methylpropyl)-7-methoxy-4-oxo-1,4-dihydroquinoline-3-carboxylic acid]	< 0.01
COc1cc2c(cc1Cc1cc(N3CCC(F)(F)C3)cc(Cl)c1F)c(=O)c(C(=O)O)cn2[C@H](CO)C(C)C [Example 12, 6-[3-chloro-5-(3,3-difluoropyrrolidin-1-yl)-2-fluorobenzyl]-1-((S)-1-hydroxymethyl-2-methylpropyl)-7-methoxy-4-oxo-1,4-dihydroquinoline-3-carboxylic acid]	< 0.01
COc1cc2c(cc1Cc1cc(N3CC[C@@H](F)C3)cc(Cl)c1F)c(=O)c(C(=O)O)cn2[C@H](CO)C(C)C [Example 13, 6-[3-chloro-2-fluoro-5-((R)-3-fluoropyrrolidin-1-yl)benzyl]-1-((S)-1-hydroxymethyl-2-methylpropyl)-7-methoxy-4-oxo-1,4-dihydroquinoline-3-carboxylic acid]	< 0.01
COc1cc2c(cc1Cc1cc(N3CC[C@H](F)C3)cc(Cl)c1F)c(=O)c(C(=O)O)cn2[C@H](CO)C(C)C [Example 14, 6-[3-chloro-2-fluoro-5-((S)-3-fluoropyrrolidin-1-yl)benzyl]-1-((S)-1-hydroxymethyl-2-methylpropyl)-7-methoxy-4-oxo-1,4-dihydroquinoline-3-carboxylic acid]	< 0.01
COc1cc2c(cc1Cc1cc(N3CCOCC3)cc(Cl)c1F)c(=O)c(C(=O)O)cn2[C@H](CO)[C@@H](C)OC [Example 15, 6-[3-chloro-2-fluoro-5-(morpholin-4-yl)benzyl]-1-((1R,2R)-1-hydroxymethyl-2-methoxypropyl)-7-methoxy-4-oxo-1,4-dihydroquinoline-3-carboxylic acid]	< 0.01
COc1cc2c(cc1Cc1cc(N3CCOCC3)c(F)c(Cl)c1F)c(=O)c(C(=O)O)cn2[C@H](CO)C(C)C [Example 16, 6-[3-chloro-2,4-difluoro-5-(morpholin-4-yl)benzyl]-1-((S)-1-hydroxymethyl-2-methylpropyl)-7-methoxy-4-oxo-1,4-dihydroquinoline-3-carboxylic acid]	< 0.01
COc1cc2c(cc1Cc1cc(N3CCOCC3)cc(Cl)c1F)c(=O)c(C(=O)O)cn2[C@H](CO)C(C)(C)C [Example 17, 6-[3-chloro-2-fluoro-5-(morpholin-4-yl)benzyl]-1-((S)-1-hydroxymethyl-2,2-dimethylpropyl)-7-methoxy-4-oxo-1,4-dihydroquinoline-3-carboxylic acid]	< 0.01
CCc1cc2c(cc1Cc1cc(N3CCOCC3)cc(Cl)c1F)c(=O)c(C(=O)O)cn2[C@H](CO)C(C)(C)C [Example 18, 6-[3-chloro-2-fluoro-5-(morpholin-4-yl)benzyl]-7-ethyl-1-((S)-1-hydroxymethyl-2,2-dimethylpropyl)-4-oxo-1,4-dihydroquinoline-3-carboxylic acid]	< 0.01
CCOC[C@@H](CO)n1cc(C(=O)O)c(=O)c2cc(Cc3cc(N4CCOCC4)cc(Cl)c3F)c(OC)cc21 [Example 19, 6-[3-chloro-2-fluoro-5-(morpholin-4-yl)benzyl]-1-((R)-1-ethoxymethyl-2-hydroxyethyl)-7-methoxy-4-oxo-1,4-dihydroquinoline-3-carboxylic acid]	< 0.01
